The values that follow come from US3932664A, “Substituted phenoxyalkyl quaternary ammonium compounds as antiarrhythemic agents” (priority 1974, dated 1976).

Each structure is given as a SMILES string.

The experiment concerns ouabain-induced ventricular tachycardia in dogs. Nature of the experiment: conversion of ouabain-induced ventricular tachycardia to normal sinus rhythm in anesthetized dogs. Format: in vivo, dog. As to conditions: intravenous; for mean duration of sinus rhythm: group of three dogs. The text has this:
Ventricular tachycardia is produced in dogs in a method similar to the method of Lucchesi and Hardman (J. Pharmacol. Exptl. Therap., 132, 372, 1961) by the administration of ouabain. In such operations, a dog is anesthetized by the intravenous administration of pentobarbital sodium at a dosage rate of 30 milligrams per kilogram. A femoral artery is cannulated with polyethylene tubing for measurements of blood pressure. A femoral vein is similarly cannulated for administration of ouabain and administration of the test compound. Hypodermic needle electrodes are employed for recording electrocardiograms. In such operations, ouabain is administered intravenously by infusion at a constant rate via the cannulated femoral vein. The infusion rate is 35 micrograms of ouabain per kilogram of animal body weight per hour. Within 1 to 1.5 hours following the start of the infusion, a ventricular tachycardia is seen to develop.
After ventricular tachycardia is observed, a test compound is administered intravenously by administration of varying amounts of a composition comprising 50 milligrams of the test compound as a sterile solution in 10 milliliters of water containing 0.9 percent sodium chloride. Each dose is administered slowly over a period of 15 to 30 seconds. The compound is administered at an initial dosage rate of 0.25 milligram of test compound per kilogram of animal body weight. Blood pressure and electrocardiogram are observed for 5 minutes after administration. When a complete conversion from the arrhythmic condition to normal sinus rhythm is not observed within the 5 minute period, a second dose of 0.50 milligram of the test compound per kilogram is administered by a similar procedure and blood pressure and heartbeat are similarly observed for 5 minutes. When complete conversion of the ventricular tachycardia to normal sinus rhythm is not observed, the dosage is increased two-fold every five minutes until complete conversion is obtained. The animal is then observed and the duration of the period of normal cardiac rhythm produced by administration of the test compound is recorded as the duration of antiarrhythmic activity. The termination of the period of normal activity is marked by the reappearance of ventricular tachycardia or fibrillation as indicated by the electrocardiogram observations. The antiarrhythmic dosage of test compound sufficient to bring about a complete conversion of the cuabain-induced tachycardia, and the duration of the period of normal cardiac activity are set out below.
The procedure of Example 26 is repeated, employing the compound of Example 1, [ 2-(4-amino-2,6-dibromophenoxy)-ethyl]-dimethyl(2-methylallyl)ammoniumchloride, as a test compound. In these operations two groups of three dogs each are administered the test compound intravenously at anti-arrhythmic dosage rates of 1 and 2 milligrams per kilogram after ectopic ventricular rhythms have been established by continuous infusion of cuabain.

On to `C=C(C)C[N+](C)(C)CCOc1c(Br)cc(N)cc1Br.[Cl-]` [Example 1, [2-(4-amino-2,6-dibromophenoxy)ethyl]-dimethyl(2-methylallyl)ammonium chloride], for which, for the setting “Canis lupus familiaris, iv, dog, dose giving complete conversion of ouabain-induced tachycardia to normal sinus rhythm, read-out: Conversion Dose”, the minimal effective dose turned out to be 0.5 mg/kg. For the same molecule, the “Duration (period of normal cardiac rhythm)” value (dog, at conversion dose 0.5 mg/kg) was found to be 15 min. In addition, the “mean duration of sinus rhythm” value reads like this: (1 mg/kg) 12.7 min; (2 mg/kg) 26.5 min. Besides, where the note is “two groups of three dogs, 1 and 2 mg/kg”, the “conversion of the arrhythmias to sinus rhythm” value is reported as “Complete conversion of the arrhythmias to sinus rhythm is observed in all the dogs”.
